The values that follow come from patent publication US12257247B2 (Monte Rosa Therapeutics AG, priority 2023, dated 2025).

Molecules are shown by their SMILES. Like-named read-outs stand apart in the source and are kept apart here.

The target in the test is T1, VAV1 (Homo sapiens, UniProt P15498+Q96SW2).
T1 construct: A heterozygous VAV1 C-terminal HiBiT knock-in pool was generated at Monte Rosa Therapeutics from a clonal Jurkat cell; endogenous in cells; host or cells: Jurkat clone stably expressing LgBiT, homozygous GSPT1-G575N; heterozygous VAV1-HiBiT knock-in pool
Briefly: VAV1 degradation activity, VAV1-HiBiT knock-in Jurkat luminescence assay (Example A, Table 1). In kind it is cell-based. As to conditions: VAV1-HiBiT knock-in Jurkat cells, luminescence read at 6 and 24 hours; for Dmax: Jurkat. The method in brief:
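Jurkat cells carrying VAV1-HiBiT knock-in, plated in RPMI/10% FBS with Endurazine live-cell substrate and pre-incubated ~16 h at 37° C. Compound dosed from 10 μM stock; luminescence read 6 and 24 h later. Response normalised to plate negative/positive controls, EC50 from 3-parameter logistic fit (hillslope 1).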
(In general: HiBiT is a short tag that completes a luciferase, so light tracks the accessible tagged protein.)

The mark [1] stands for this setting: read-out: VAV1 DC50 (nM), class.

The term Dmax denotes the largest share of the target that was removed. One may read the DC50 as the concentration at which degradation of the target reaches its halfway point. Turning to `CN1CCN(c2ccc(-c3cccc(C4CCC(=O)NC4=O)c3Cl)cc2)C1=O` (centres unmarked) [Compound 387, 3-(2-chloro-4′-(3-methyl-2-oxoimidazolidin-1-yl)-[1,1′-biphenyl]-3-yl)piperidine-2,6-dione], the Dmax reads like this: (read-out: VAV1 Dmax %) 58.4%; (read-out: VAV1 Dmax %, class) < 60%. The DC50 was 865 nM (read-out: VAV1 DC50) and 100 to 1000 nM under setting [1].
Take `CN1CCN(Cc2ccc(-c3cccc(C4CCC(=O)NC4=O)c3Cl)cc2)C1=O` (centres unmarked) [Compound 388, 3-(2-chloro-4′-((3-methyl-2-oxoimidazolidin-1-yl)methyl)-[1,1′-biphenyl]-3-yl)piperidine-2,6-dione]: the Dmax is 91% (read-out: VAV1 Dmax %) and > 90% (read-out: VAV1 Dmax %, class). Besides, the DC50 by setting is: (read-out: VAV1 DC50) 16.2 nM; under setting [1], ≤ 100 nM.
In the case of `O=C1CCC(c2cccc(-c3ccc(N4C(=O)CCCC45CC5)nc3)c2Cl)C(=O)N1` (centres unmarked) [Compound 389, 3-(2-chloro-3-(6-(5-oxo-4-azaspiro[2.5]octan-4-yl)pyridin-3-yl)phenyl)piperidine-2,6-dione], the Dmax was 88.5% (read-out: VAV1 Dmax %) and 60 to 90% (read-out: VAV1 Dmax %, class). Moreover, the DC50 by setting is: (read-out: VAV1 DC50) 41.4 nM; under setting [1], ≤ 100 nM.
For `N#CC1(CN2C(=O)Cc3cc(-c4cccc(C5CCC(=O)NC5=O)c4Cl)ccc32)CC1` (centres unmarked) [Compound 390, 1-((5-(2-chloro-3-(2,6-dioxopiperidin-3-yl)phenyl)-2-oxoindolin-1-yl)methyl)cyclopropane-1-carbonitrile], in that order: 71.2%, 60 to 90%, 615 nM and 100 to 1000 nM.
In the same order, the values of `COC1(CN2C(=O)Cc3cc(-c4cccc(C5CCC(=O)NC5=O)c4Cl)ccc32)CC1` (centres unmarked) [Compound 391, 3-(2-chloro-3-(1-((1-methoxycyclopropyl)methyl)-2-oxoindolin-5-yl)phenyl)piperidine-2,6-dione] are 54%, < 60%, 5110 nM and > 1000 nM.
In the same order, the values of `Cn1cnc(Cn2c(=O)oc3cc(-c4cccc(C5CCC(=O)NC5=O)c4Cl)ccc32)c1` (centres unmarked) [Compound 392, 3-(2-chloro-3-(3-((1-methyl-1H-imidazol-4-yl)methyl)-2-oxo-2,3-dihydrobenzo[d]oxazol-6-yl)phenyl)piperidine-2,6-dione] are 94.8%, > 90%, 12.8 nM and ≤ 100 nM.
Take `O=C1CCC(c2cccc(-c3ccc4c(c3)CC(=O)N4Cc3ncccn3)c2Cl)C(=O)N1` (centres unmarked) [Compound 393, 3-(2-chloro-3-(2-oxo-1-(pyrimidin-2-ylmethyl)indolin-5-yl)phenyl)piperidine-2,6-dione]: the Dmax is, setting by setting: (read-out: VAV1 Dmax %) 86.7%; (read-out: VAV1 Dmax %, class) 60 to 90%. For the same compound, the DC50 by setting is: (read-out: VAV1 DC50) 29.3 nM; under setting [1], ≤ 100 nM.
As for `O=C1CCC(c2cccc(-c3ccc(N4C(=O)CCC45CCC5)nc3)c2Cl)C(=O)N1` (centres unmarked) [Compound 394, 3-(2-chloro-3-(6-(6-oxo-5-azaspiro[3.4]octan-5-yl)pyridin-3-yl)phenyl)piperidine-2,6-dione], the Dmax runs as follows: (read-out: VAV1 Dmax %) 88.7%; (read-out: VAV1 Dmax %, class) 60 to 90%. The DC50 is 36.2 nM (read-out: VAV1 DC50) and ≤ 100 nM under setting [1].
As for `O=C1CCC(c2cccc(-c3ccc4c(c3)CC(=O)N4Cc3cccnn3)c2Cl)C(=O)N1` (centres unmarked) [Compound 395, 3-(2-chloro-3-(2-oxo-1-(pyridazin-3-ylmethyl)indolin-5-yl)phenyl)piperidine-2,6-dione], the Dmax runs as follows: (read-out: VAV1 Dmax %) 83.9%; (read-out: VAV1 Dmax %, class) 60 to 90%. For the same compound, the DC50 runs as follows: (read-out: VAV1 DC50) 55.7 nM; under setting [1], ≤ 100 nM.
In the same order, the values of `O=C1CCC(c2cccc(-c3ccc4c(cnn4Cc4ncccn4)c3)c2Cl)C(=O)N1` (centres unmarked) [Compound 396, 3-(2-chloro-3-(1-(pyrimidin-2-ylmethyl)-1H-indazol-5-yl)phenyl)piperidine-2,6-dione] are 96.9%, > 90%, 4.98 nM and ≤ 100 nM.
As for `Cn1cnc(Cn2ncc3cc(-c4cccc(C5CCC(=O)NC5=O)c4Cl)ccc32)c1` (centres unmarked) [Compound 397, 3-(2-chloro-3-(1-((1-methyl-1H-imidazol-4-yl)methyl)-1H-indazol-5-yl)phenyl)piperidine-2,6-dione], the Dmax is, setting by setting: (read-out: VAV1 Dmax %) 99.1%; (read-out: VAV1 Dmax %, class) > 90%. Moreover, the DC50 runs as follows: (read-out: VAV1 DC50) 3.01 nM; under setting [1], ≤ 100 nM.
Turning to `O=C1CCC(c2cccc(-c3ccc(Cc4ncccn4)nc3)c2Cl)C(=O)N1` (centres unmarked) [Compound 400, 3-(2-chloro-3-(6-(pyrimidin-2-ylmethyl)pyridin-3-yl)phenyl)piperidine-2,6-dione], the Dmax (read-out: VAV1 Dmax %) stood at 81.5% and the Dmax (read-out: VAV1 Dmax %, class) lay in the range of 60 to 90%. The DC50 runs as follows: (read-out: VAV1 DC50) 77 nM; under setting [1], ≤ 100 nM.
Turning to `O=C1CCC(c2cccc(-c3ccc(Cc4ccncn4)cc3)c2Cl)C(=O)N1` (centres unmarked) [Compound 401, 3-(2-chloro-4′-(pyrimidin-4-ylmethyl)-[1,1′-biphenyl]-3-yl)piperidine-2,6-dione], the Dmax by setting is: (read-out: VAV1 Dmax %) 94.4%; (read-out: VAV1 Dmax %, class) > 90%. Also, the DC50 is 15 nM (read-out: VAV1 DC50) and ≤ 100 nM under setting [1].
As to `CC1(C)COCC(=O)N1c1ccc(-c2cccc(C3CCC(=O)NC3=O)c2Cl)cc1` (centres unmarked) [Compound 402, 3-(2-chloro-4′-(3,3-dimethyl-5-oxomorpholino)-[1,1′-biphenyl]-3-yl)piperidine-2,6-dione], the Dmax was 97.4% (read-out: VAV1 Dmax %) and > 90% (read-out: VAV1 Dmax %, class). The DC50 reads like this: (read-out: VAV1 DC50) 5.3 nM; under setting [1], ≤ 100 nM.
On to `CC1(C)CCCC(=O)N1c1ccc(-c2cccc(C3CCC(=O)NC3=O)c2Cl)cc1` (centres unmarked) [Compound 403, 3-(2-chloro-4′-(2,2-dimethyl-6-oxopiperidin-1-yl)-[1,1′-biphenyl]-3-yl)piperidine-2,6-dione], for which the Dmax (read-out: VAV1 Dmax %) came out at 98.2% and the Dmax (read-out: VAV1 Dmax %, class) is > 90%. In addition, the DC50 (read-out: VAV1 DC50) was determined as 3.26 nM and the DC50 under setting [1] is ≤ 100 nM.
Regarding `O=C1CCC(c2cccc(-c3ccc(CN4C(=O)CCCC45CC5)nc3)c2Cl)C(=O)N1` (centres unmarked) [Compound 404, 3-(2-chloro-3-(6-((5-oxo-4-azaspiro[2.5]octan-4-yl)methyl)pyridin-3-yl)phenyl)piperidine-2,6-dione], the Dmax runs as follows: (read-out: VAV1 Dmax %) 65.5%; (read-out: VAV1 Dmax %, class) 60 to 90%. The DC50 was 262 nM (read-out: VAV1 DC50) and 100 to 1000 nM under setting [1].
Turning to `O=C1CCC(c2cccc(-c3ccc(N4C(=O)CC45CCC5)cc3)c2Cl)C(=O)N1` (centres unmarked) [Compound 405, 3-(2-chloro-4′-(2-oxo-1-azaspiro[3.3]-heptan-1-yl)-[1,1′-biphenyl]-3-yl)piperidine-2,6-dione], the Dmax is, setting by setting: (read-out: VAV1 Dmax %) 76.3%; (read-out: VAV1 Dmax %, class) 60 to 90%. Besides, the DC50 by setting is: (read-out: VAV1 DC50) 383 nM; under setting [1], 100 to 1000 nM.
`CN1Cc2cccc(-c3ccc(-c4cccc(C5CCC(=O)NC5=O)c4Cl)cc3)c2S1(=O)=O` (centres unmarked) [Compound 406, 3-(2-chloro-4′-(2-methyl-1,1-dioxido-2,3-dihydrobenzo[d]isothiazol-7-yl)-[1,1′-biphenyl]-3-yl)piperidine-2,6-dione]: the Dmax reads like this: (read-out: VAV1 Dmax %) 82.4%; (read-out: VAV1 Dmax %, class) 60 to 90%. Moreover, the DC50 runs as follows: (read-out: VAV1 DC50) 25.9 nM; under setting [1], ≤ 100 nM.
For `O=C1CCC(c2cccc(-c3ccc(N4C(=O)CCCC45COC5)cc3)c2Cl)C(=O)N1` (centres unmarked) [Compound 407, 3-(2-chloro-4′-(6-oxo-2-oxa-5-azaspiro[3.5]nonan-5-yl)-[1,1′-biphenyl]-3-yl)piperidine-2,6-dione], the greatest degradation seen (Dmax) (read-out: VAV1 Dmax %) was 95.5% and the Dmax (read-out: VAV1 Dmax %, class) was > 90%. Further, the DC50 runs as follows: (read-out: VAV1 DC50) 6.17 nM; under setting [1], ≤ 100 nM.
As to `Cn1cnc(Cc2ccc(-c3cccc(C4CCC(=O)NC4=O)c3Cl)cc2)c1` (centres unmarked) [Compound 408, 3-(2-chloro-4′-((1-methyl-1H-imidazol-4-yl)methyl)-[1,1′-biphenyl]-3-yl)piperidine-2,6-dione], the Dmax is 96% (read-out: VAV1 Dmax %) and > 90% (read-out: VAV1 Dmax %, class). Besides, the DC50 reads like this: (read-out: VAV1 DC50) 30.8 nM; under setting [1], ≤ 100 nM.
In the same order, the values of `CN1CCC[C@H](c2ccc(-c3cccc(C4CCC(=O)NC4=O)c3Cl)cc2)C1=O` (stereo partly drawn) [Compound 409, 3-(2-chloro-4′-((R)-1-methyl-2-oxopiperidin-3-yl)-[1,1′-biphenyl]-3-yl)piperidine-2,6-dione] are 95.2%, > 90%, 7.82 nM and ≤ 100 nM.
In the same order, the values of `CN1CCC[C@@H](c2ccc(-c3cccc(C4CCC(=O)NC4=O)c3Cl)cc2)C1=O` (stereo partly drawn) [Compound 410, 3-(2-chloro-4′-((S)-1-methyl-2-oxopiperidin-3-yl)-[1,1′-biphenyl]-3-yl)piperidine-2,6-dione] are 92.1%, > 90%, 17 nM and ≤ 100 nM.
Turning to `COCc1ccn(C)c(=O)c1-c1ccc(-c2cccc(C3CCC(=O)NC3=O)c2Cl)cc1` (centres unmarked) [Compound 411, 3-(2-chloro-4′-(4-(methoxymethyl)-1-methyl-2-oxo-1,2-dihydropyridin-3-yl)-[1,1′-biphenyl]-3-yl)piperidine-2,6-dione], the Dmax runs as follows: (read-out: VAV1 Dmax %) 98.2%; (read-out: VAV1 Dmax %, class) > 90%. Moreover, the DC50 by setting is: (read-out: VAV1 DC50) 1.99 nM; under setting [1], ≤ 100 nM.
